Measured values: patent publication US7803764B2, “Amphipathic glycopeptides” (The Arizona Board of Regents on Behalf of the University of …, priority 2004, dated 2010)

What was measured:
[1] = helicity by circular dichroism; assay type: physicochemical; conditions: for % α-helicity: CD, SDS micelles (30 mM), pH = 7.0, 18° C.
Experimental: Circular Dichroism. All of the circular dichroism experiments were carried out on Aviv Associates model 60DS using an Endcal Model RTE4DD water circulator as a temperature-control vehicle. The instrument was calibrated by using d-10-camphorsulphonic acid. The spectra were recorded between 200 and 250 nm by using the continuous mode with a 1.5 nm bandwidth, a three second response and a scan step of 0.5 nm in a cell with a path length of 0.1 cm. Three or five scans were accumulated and averaged for each spectrum. Glycopeptide stock solutions were prepared by weighing the required amount, using Cahn/Ventron Instruments Model 21 automatic analytical electrobalance, to make 1 mL of a 0.5-1.0 mM solution and the pH was adjusted to the desired value. Samples were prepared by diluting the stock solution to 70-80 μM. All observed spectra were baseline-subtracted and smoothed by adjacent average of 5 points using Microcal Origin Ver. 5.0 software (Microcal Software Inc, USA). The molar ellipticities were determined using the formula [θ]=[θ]obs·(MRW)/10·l·C, where [θ]obs observed ellipticity in millidegrees, MRW is the mean residue weight, l is the cell path length in centimeters and C is the glycopeptide concentration in mg/mL. The percent α-helicity was determined by using the formula % helix=[θ]n→π*/−40,000 (1−2.5/n)·100, where n represents the number of amide bonds (including the C-terminal amide) in the glycopeptide and [θ]n→π** is molar ellipticity of n→π* transition band at 222 nm.^55
Conformational Analysis by CD. Circular dichroism (CD) is a powerful and simple tool for identifying secondary structure in both peptides and proteins.^64 All the peptides were subjected to CD analysis in H2O, TFE-H2O mixtures, SDS micelles and phospholipid bicelles. In H2O, a negative band near 200 nm is observed that arises from the π→π* electronic transition and is typical of random coil peptides. […] This behavior is explained as nascent helices.^65 In these nascent helices, helix CD signals could be induced by the addition of TFE.^66 All the glycopeptides gave an increased helix CD signal in TFE. The percentage of helicity increases as TFE concentration increases, but reached a maximum at 30% TFE. The increase in helicity in TFE can be attributed to decreased competition by H2O for hydrogen bonding to the backbone amides. […] In the presence of SDS micelles and anionic bicelles, the band at 200 nm underwent a red shift (higher value) and an additional shoulder appears around 222 nm as a result of the n→π* transition. […] The negative maxima at 222 nm (n→π* transition band) is used to calculate the helical content of polypeptides and proteins. The accepted value for a peptide that is 100% helical is approximately −35,000. It was observed that changes in amplitude of the bands up to 30% depend on length of helix.^67 The amplitude increases as α-helical chain length increases. Therefore, one has to consider the importance of chain-length dependence of the α-helix CD in the quantitative treatment of helix content in proteins and polypeptides. The percentage of helicity is independent of SDS concentration and pH (data not shown). In the presence of zwitterionic bicelles all of the glycopeptides yielded CD spectra similar to that observed in H2O, but anionic bicelles forced them to become more helical. The intensities of the [θ]π→π* band and the [θ]n→π* band are expected to be almost equal for a perfect α-helical peptide. […] A modest blue shift and reduced intensity for the [θ]n→π* transition bands are observed for all the glycopeptides in TFE. […] The glycopeptides 9 (Pro/Glc) and 12 (Pro/Lactose), which differ only by the sugar moiety attached, adopt perfect helices in the presence of SDS micelles and in anionic bicelles. The disaccharide increased the percentage of helicity in all the solvents, relative to the monosaccharide. […] It is remarkable to note that a single amino acid mutation at position 6 produced profound changes in the CD spectra. […]

water solubility = conditions: H2O
μ opioid receptor = μ opioid receptor (Homo sapiens, UniProt P35372); test: opioid receptor binding, μ receptor
Chain of μ opioid receptor (P35372 whole entry): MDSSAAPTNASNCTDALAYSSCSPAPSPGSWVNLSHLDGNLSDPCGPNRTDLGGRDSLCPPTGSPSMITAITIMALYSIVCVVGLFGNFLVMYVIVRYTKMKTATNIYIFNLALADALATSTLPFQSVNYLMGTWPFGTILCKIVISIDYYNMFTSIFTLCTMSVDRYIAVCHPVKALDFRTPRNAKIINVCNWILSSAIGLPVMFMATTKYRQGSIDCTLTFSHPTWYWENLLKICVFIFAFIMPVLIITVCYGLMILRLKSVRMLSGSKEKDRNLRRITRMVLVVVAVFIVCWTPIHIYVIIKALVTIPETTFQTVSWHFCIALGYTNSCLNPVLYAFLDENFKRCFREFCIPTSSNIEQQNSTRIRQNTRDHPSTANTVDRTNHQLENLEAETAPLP

[2] = blood-brain barrier uptake / penetration; conditions: mice
[3] = in vivo antinociception after i.c.v. administration; design: species or system mice; conditions: i.c.v., mice, antinociception
δ opioid receptor = δ opioid receptor (Homo sapiens, UniProt P41143); test: opioid receptor binding, δ receptor
Chain of δ opioid receptor (P41143 whole entry): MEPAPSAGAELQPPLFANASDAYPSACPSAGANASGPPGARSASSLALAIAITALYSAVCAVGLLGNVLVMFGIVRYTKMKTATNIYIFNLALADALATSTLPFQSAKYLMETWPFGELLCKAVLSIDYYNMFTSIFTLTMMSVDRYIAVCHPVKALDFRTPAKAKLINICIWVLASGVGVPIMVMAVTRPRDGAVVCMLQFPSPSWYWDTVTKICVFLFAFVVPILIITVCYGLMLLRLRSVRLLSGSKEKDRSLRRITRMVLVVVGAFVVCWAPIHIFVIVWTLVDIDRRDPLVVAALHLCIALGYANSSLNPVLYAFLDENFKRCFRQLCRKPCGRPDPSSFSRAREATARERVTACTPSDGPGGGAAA

[4] = helicity by NMR αCH chemical shift index; assay type: physicochemical
Experimental: NMR Spectroscopy. All NMR spectra were recorded on a Bruker DRX600 600 MHz spectrometer. Glycopeptide concentration for the NMR experiments varied from 2-3 mM. The glycopeptides were prepared in TFE-water solution by dissolving the peptide in 0.6 ml solution of a premixed 30% TFE-water mixture. The micelle samples were prepared by dissolving the glycopeptide and 100 equivalent of perdeuterated SDS in 0.6 ml of H2O/D2O (9:1 ratio by volume). Bicelles were produced from deuterated phospholipids. The zwitterionic bicelles were made by mixing the short chain phospholipid dihexanoyl-sn-glycero-3-phosphatidylcholine-d22 (DHPC) and the long chain 1,2-dimyristoyl-sn-glycero-3-phosphatidylcholine-d54 (DMPC) in the molar ratio of 2:1 in H2O. The […] were prepared by substituting 10 mol % of 1,2-dimyristoyl-sn-glycero-3-phospho-1-glycerol-d54 (DMPG) for DMPC. The glycopeptide to bicelle ratio was 1:25. After the glycopeptide was added to the bicelle solution, the system was submitted to a series o f three freeze/thaw/slight vortex shaking cycles. The pH of the each sample was adjusted to 4.5 by using DCl or NaOD as necessary. TSP (3-(trimethylsilyl)-d4-propionic acid) was added as an internal standard. The experiments in F3CCD2OD/H2O mixtures were at 293 K and for experiments in micelles/bicelles were at 298 or 311 K. Two-dimensional double quantum filtered correlation (DQF-COSY), rotating-frame Overhauser enhancement^56 (ROESY), Nuclear Overhauser enhancement^57 (NOESY), and total correlation spectra^58 (TOCSY) were acquired using standard pulse sequences and processed using XWINNMR (Bruker Inc) and FELIX2000 (Accelrys Inc, San Diego, Calif.), Mixing times for TOCSY spectra were either 80 or 100 ms. Mixing times for ROESY spectra were 150 or 250 ms, and for NOESY spectra were 200 or 300 ms. All experiments were 750 increments in t1, 16/32/64 scans each, 1.5 s relaxation delay, size 2 or 4K, and the spectral processing was with shifted sine bell window multiplications in both dimensions.
αCH Chemical Shift Index. […] At this point there is no accepted random coil αCH values for glycosylated serine, CSI values for this position are uncertain. The conformational shift values for all solvents were obtained using the random coil values described by Wright and co-workers.^72 Although, these reference shifts were obtained at pH=5.0 at 4.2° C., they appear to be very insensitive to the conditions, as very small deviations (±0.04) were observed when random coil values are obtained at pH=7.0 at 35° C. by Wuthrich and co-workers.^68 The quantification of secondary structure based on αCH chemical shifts is neglected in the literature because various contributions cannot be strictly accounted for, such as electrostatic effects, ring current shifts, and other magnetic anisotropies. However, it is possible to make qualitative comparison of helical content between closely related (glyco)peptides. Since the 3rd generation glycopeptides differ by only one amino acid at position 6, the helical content was obtained based on the αCH chemical shift values (Table 3). The method described by Gierasch and co-workers^69a was used. First, the average conformational shift was calculated for each glycopeptide by adding all upfield shifts in the helical regions and dividing by the total number of peptide bonds. Then, to obtain the overall helical content for each glycopeptide, the average conformational shift was divided by 0.35 ppm, which was assigned for 100% helicity. Since, there are no random coil values available for β-Alanine and glycosylated serine residues, they were not included in the calculation. The helicogenic Aib residue lacks an α-proton, and there was no correction included in the calculation for the helicity provided by Aib residue. The helical content obtained by this method correlated with the helical content obtained by CD. […]

With `CC(C)C[C@H](NC(=O)[C@H](C)NC(=O)[C@H](CC(N)=O)NC(=O)[C@H](Cc1ccccc1)NC(=O)[C@H](Cc1c[nH]c2ccccc12)NC(=O)[C@H](CCCCN)NC(=O)[C@H](CO[C@@H]1O[C@H](CO)[C@@H](O)[C@H](O)[C@H]1O)NC(=O)[C@H](C)NC(=O)[C@H](CC(C)C)NC(=O)[C@H](CCC(=O)O)NC(=O)CNC(=O)[C@H](CC(C)C)NC(=O)[C@H](Cc1ccccc1)NC(=O)CNC(=O)[C@H](NC(=O)[C@@H](N)Cc1ccc(O)cc1)[C@H](C)O)C(=O)N[C@@H](CCC(=O)O)C(N)=O` (relative stereo) [Glycopeptide 1, YtGFLGELAS*KWFNALE] the “% α-helicity” value [1] was 85% and the water solubility (water solubility) was “H2O insoluble”.
With `CC(C)C[C@H](NC(=O)[C@H](C)NC(=O)[C@H](CC(N)=O)NC(=O)[C@H](Cc1ccccc1)NC(=O)[C@H](Cc1c[nH]c2ccccc12)NC(=O)[C@H](CCCCN)NC(=O)[C@H](CO[C@@H]1O[C@H](CO)[C@@H](O)[C@H](O)[C@H]1O)NC(=O)[C@H](C)NC(=O)[C@H](CC(C)C)NC(=O)[C@H](CCC(=O)O)NC(=O)CNC(=O)[C@H](CC(C)C)NC(=O)[C@H](Cc1ccccc1)NC(=O)CNC(=O)[C@H](NC(=O)[C@@H](N)Cc1ccc(O)cc1)[C@H](C)O)C(=O)N[C@@H](CCC(=O)O)C(=O)N[C@@H](CO[C@@H]1O[C@H](CO)[C@@H](O)[C@H](O)[C@H]1O)C(=O)N[C@@H](Cc1ccccc1)C(N)=O` (relative stereo) [Glycopeptide 3, YtGFLGELAS*KWFNALES*F] the “% α-helicity” value [1] was 65% and the water solubility (water solubility) was “H2O insoluble”.
With `CC(C)C[C@H](NC(=O)[C@H](C)NC(=O)[C@H](CC(N)=O)NC(=O)[C@H](Cc1ccccc1)NC(=O)[C@H](Cc1c[nH]c2ccccc12)NC(=O)[C@H](CCCCN)NC(=O)[C@H](CO[C@@H]1O[C@H](CO)[C@@H](O)[C@H](O)[C@H]1O)NC(=O)[C@H](C)NC(=O)[C@H](CC(C)C)NC(=O)[C@H](CCC(=O)O)NC(=O)CNC(=O)[C@H](CC(C)C)NC(=O)[C@H](Cc1ccccc1)NC(=O)CNC(=O)[C@H](NC(=O)[C@@H](N)Cc1ccc(O)cc1)[C@H](C)O)C(=O)N[C@@H](CCC(=O)O)C(=O)N[C@@H](CO[C@@H]1O[C@H](CO)[C@@H](O)[C@H](O)[C@H]1O)C(=O)N[C@@H](Cc1ccccc1)C(=O)N[C@@H](Cc1c[nH]c2ccccc12)C(N)=O` (relative stereo) [Glycopeptide 4, YtGFLGELAS*KWFNALES*FW] the “% α-helicity” value [1] was 82% and the water solubility (water solubility) was “H2O insoluble”.
For `CC(C)C[C@H](NC(=O)[C@H](CO[C@@H]1O[C@H](CO)[C@@H](O)[C@H](O)[C@H]1O)NC(=O)[C@H](CCCCN)NC(=O)[C@H](CC(C)C)NC(=O)[C@H](C)NC(=O)[C@H](CCCCN)NC(=O)[C@H](CCC(=O)O)NC(=O)C(C)(C)NC(=O)[C@H](CC(C)C)NC(=O)[C@H](CC(N)=O)NC(=O)CCNC(=O)[C@H](CC(C)C)NC(=O)[C@H](Cc1ccccc1)NC(=O)CNC(=O)[C@H](NC(=O)[C@@H](N)Cc1ccc(O)cc1)[C@H](C)O)C(N)=O` (relative stereo) [Glycopeptide 10, YtGFLβANLBEKALKS*L], the IC50 (μ opioid receptor) was 153 nM, the BBB uptake [2] was 0.183 microliters per min per gram of cortex and the “% α-helicity by CD” value ([1]; solvent Bicelle A (anionic bicelles)) was 27%. The “% α-helicity by CD” value ([1]; solvent H2O) was >1%, the “% α-helicity by CD” value ([1]; solvent SDS micelles) was 29% and the “% α-helicity by CD” value ([1]; solvent TFE) was 22%. The A50 i.c.v. [3] was 0.030 nmol, the IC50 (δ opioid receptor) was 109 nM and the “% α-helicity by NMR” value ([4]; solvent H2O) was 17%. For the same compound, the “% α-helicity by NMR” value ([4]; solvent SDS micelles) was 55% and the “% α-helicity by NMR” value ([4]; solvent TFE) was 32%.
